Experimental data taken from the PolyMetriX glass transition set.
± gives the standard deviation of the reports.

**Q.** Which glass transition temperature does the source give for *CC(*)c1ccc(C(=O)OCCN(C)C)cc1 (repeat unit) here?
**A.** 91.00 °C

**Q.** With *Oc1ccc(C2(C)CCC(C(C)(C)c3ccc(Oc4ccc(C(=O)c5ccc(*)cc5)cc4)cc3)CC2)cc1 (repeat unit) as the compound, how does the glass transition temperature read?
**A.** 200.00 °C

**Q.** For *CCCNC(=O)CCCCC(=O)NCCCO* (repeat unit), which glass transition temperature is on record?
**A.** 34.00 °C

**Q.** For *c1ccc(NC(=O)Nc2ccc(NC(=O)Nc3ccc(-c4nc(-c5ccc(-c6nc(-c7ccc([N+](=O)[O-])cc7)c(-c7ccc([N+](=O)[O-])cc7)[nH]6)cc5)[nH]c4*)cc3)cc2)cc1 (repeat unit), which glass transition temperature is on record?
**A.** 272.00 °C

**Q.** With *C(=O)Nc1ccc(Oc2cccc(Oc3ccc(NC(=O)c4ccc5c(c4)C(=O)N(c4ccc(Oc6cccc(Oc7ccc(N8C(=O)c9ccc(*)cc9C8=O)cc7)c6C#N)cc4)C5=O)cc3)c2C#N)cc1 (repeat unit) as the compound, how does the glass transition temperature read?
**A.** 220.00 °C

**Q.** Which glass transition temperature does the source give for *CCCCOC(=O)NCCCCNC(=O)O* (repeat unit) here?
**A.** 7.00 °C

**Q.** With *C(=O)OCCCCCCOC(=O)c1ccc(N2C(=O)c3ccc(*)cc3C2=O)cc1 (repeat unit) as the compound, how does the glass transition temperature read?
**A.** 80.50 °C

**Q.** For *CC(CO*)(CS(=O)(=O)CCC)CS(=O)(=O)CCC (repeat unit), which glass transition temperature is on record?
**A.** 71.00 °C

**Q.** Which glass transition temperature does the source give for *c1cccc(NC(=O)c2ccc(OCCOCCOCCOc3ccc(C(=O)Nc4ccc5[nH]c(*)nc5c4)cc3)cc2)c1 (repeat unit) here?
**A.** 180.00 °C

**Q.** Which glass transition temperature does the source give for *Oc1ccccc1C(=O)OC(=O)c1ccccc1OC(=O)C(CC)C(CC)C(*)=O (repeat unit) here?
**A.** 23.00 °C

**Q.** For *c1nnc(-c2ccc(Oc3ccc(C(c4ccc(Oc5ccc(*)c6ccccc56)cc4)(C(F)(F)F)C(F)(F)F)cc3)c3ccccc23)o1 (repeat unit), which glass transition temperature is on record?
**A.** 220.00 °C

**Q.** With *c1ccc(-c2cc(CCCCCCOC(=O)COc3ccccc3)c(*)s2)s1 (repeat unit) as the compound, how does the glass transition temperature read?
**A.** 79.00 °C

**Q.** Which glass transition temperature does the source give for *CC(O)COc1ccc(C(C)(C)c2ccc(OCC(O)COc3cccc(C(=O)Nc4cccc(O*)c4)c3)cc2)cc1 (repeat unit) here?
**A.** 117.00 °C

**Q.** For *CC(*)OCCCCC (repeat unit) [Poly(vinyl n-pentyl ether)], which glass transition temperature is on record?
**A.** -66 ± 0.6 °C

**Q.** With *C(=O)c1cccc(C(=O)N2CCN(*)CC2)c1 (repeat unit) as the compound, how does the glass transition temperature read?
**A.** 214.50 °C

**Q.** Which glass transition temperature does the source give for *c1ccc(-c2ccc(-n3c(=O)c4cc5c(=O)n(*)c(=O)c5cc4c3=O)cc2F)c(F)c1 (repeat unit) here?
**A.** 398.00 °C

**Q.** Which glass transition temperature does the source give for *c1ccc(NC(=O)CCCCCCCCCCC(=O)Nc2ccc(S(*)(=O)=O)cc2)cc1 (repeat unit) here?
**A.** 160.00 °C

**Q.** For *c1cc(N2C(=O)c3ccc(Oc4ccc5ccc(Oc6ccc7c(c6)C(=O)N(*)C7=O)cc5c4)cc3C2=O)cc(C(F)(F)F)c1 (repeat unit), which glass transition temperature is on record?
**A.** 235.00 °C

**Q.** With *CC(*)c1ccc(C(=O)CCCCC)cc1 (repeat unit) as the compound, how does the glass transition temperature read?
**A.** 66.00 °C

**Q.** Which glass transition temperature does the source give for *Oc1ccc(C(C)(CC)c2ccc(OC(*)=S)cc2)cc1 (repeat unit) here?
**A.** 102.00 °C

**Q.** Which glass transition temperature does the source give for *CC(C(C)C)C(COC(=O)c1ccc(C(=O)O*)cc1)C(C)C (repeat unit) here?
**A.** 65.00 °C

**Q.** For *CCCc1ccc(-c2c(-c3ccccc3)cc(-c3cccc(-c4cc(-c5ccccc5)c(-c5ccc(*)cc5)c(-c5ccccc5)c4-c4ccccc4)c3)c(-c3ccccc3)c2-c2ccccc2)cc1 (repeat unit), which glass transition temperature is on record?
**A.** 240.00 °C

**Q.** For *c1ccc(N2C(=O)c3ccc(-c4cccc5c4C(=O)N(*)C5=O)cc3C2=O)cc1 (repeat unit), which glass transition temperature is on record?
**A.** 405.00 ± 36 °C

**Q.** For *Oc1cccc(OC2(F)C(*)(F)C(F)(F)C2(F)F)c1 (repeat unit), which glass transition temperature is on record?
**A.** 32.00 °C

**Q.** For *C/C=C/COC(=O)C(Cc1ccccc1)NC(=O)CCCCC(=O)NC(Cc1ccccc1)C(=O)O* (repeat unit), which glass transition temperature is on record?
**A.** 61.00 °C

**Q.** Which glass transition temperature does the source give for *C(=O)c1ccc(Oc2ccc(N3C(=O)c4ccc(*)cc4C3=O)cc2)cc1 (repeat unit) here?
**A.** 297.00 °C

**Q.** With *CCN(*)C(=O)C1CC1 (repeat unit) as the compound, how does the glass transition temperature read?
**A.** 77.00 °C

**Q.** Which glass transition temperature does the source give for *CC(*)c1ccc(Cl)c(Cl)c1 (repeat unit) here?
**A.** 128.00 °C

**Q.** For *c1ccc2c(c1)C(=O)N(c1ccc(OCCCCOc3ccc(N4C(=O)c5ccc(C(*)(C(F)(F)F)C(F)(F)F)cc5C4=O)cc3)cc1)C2=O (repeat unit), which glass transition temperature is on record?
**A.** 169.00 °C

**Q.** With *Sc1c(C)cc(*)cc1C (repeat unit) as the compound, how does the glass transition temperature read?
**A.** 198.00 °C

**Q.** With *c1cccc(P(=O)(c2cccc(-n3c(=O)c4cc5c(=O)n(*)c(=O)c5cc4c3=O)c2)c2cc(C(F)(F)F)cc(C(F)(F)F)c2)c1 (repeat unit) as the compound, how does the glass transition temperature read?
**A.** 281.00 °C

**Q.** With *CC(=O)Nc1ccc(Oc2ccc(NC(=O)c3ccc4c(c3)C(=O)N(*)C4=O)cc2)cc1 (repeat unit) as the compound, how does the glass transition temperature read?
**A.** 262.00 °C

**Q.** For *c1cccc(OCCCCCCOc2cccc(N3C(=O)c4ccc(-c5ccc6c(c5)C(=O)N(*)C6=O)cc4C3=O)c2)c1 (repeat unit), which glass transition temperature is on record?
**A.** 153.00 °C

**Q.** For *CC(*)c1ccc(OP2(OCCOCCOCCOC)=NP(OCCOCCOCCOC)(OCCOCCOCCOC)=NP(OCCOCCOCCOC)(OCCOCCOCCOC)=N2)cc1 (repeat unit), which glass transition temperature is on record?
**A.** -46.00 °C

**Q.** Which glass transition temperature does the source give for *Oc1ccc(C(C)(C)c2ccc(OC(=O)Sc3ccc(C(C)(C)c4ccc(SC(*)=O)cc4)cc3)cc2)cc1 (repeat unit) here?
**A.** 154.00 °C

**Q.** With *c1ccc(Oc2ccc(N3C(=O)C(Cl)=C(Oc4ccc(C(C)(C)c5ccc(OC6=C(Cl)C(=O)N(*)C6=O)cc5)cc4)C3=O)cc2)cc1 (repeat unit) as the compound, how does the glass transition temperature read?
**A.** 175.00 °C

**Q.** For *CC1CCC(COC(C)OC(=O)c2ccc(C(=O)OC(C)O*)cc2)CC1 (repeat unit), which glass transition temperature is on record?
**A.** 61.00 °C

**Q.** With *C(F)C(*)(F)OC(F)(F)F (repeat unit) as the compound, how does the glass transition temperature read?
**A.** -10.00 °C

**Q.** With *c1ccc(Oc2cc(C(C)(C)C)ccc2Oc2ccc(N3C(=O)c4ccc(-c5ccc6c(c5)C(=O)N(*)C6=O)cc4C3=O)cc2)cc1 (repeat unit) as the compound, how does the glass transition temperature read?
**A.** 257.00 °C

**Q.** With *CCCC(C)CN1C(=O)c2ccc(C(=O)Oc3ccc(-c4ccc(OC(=O)c5ccc6c(c5)C(=O)N(*)C6=O)cc4)cc3)cc2C1=O (repeat unit) as the compound, how does the glass transition temperature read?
**A.** 155.00 °C

**Q.** Which glass transition temperature does the source give for *Oc1ccc(C(c2ccc(OC(*)=O)cc2)C2CCCCC2)cc1 (repeat unit) here?
**A.** 190.00 °C

**Q.** With *CC1CC(*)C(=O)OC1=O (repeat unit) as the compound, how does the glass transition temperature read?
**A.** 140.00 °C

**Q.** Which glass transition temperature does the source give for *C(=O)Nc1ccc(-c2ccc(NC(=O)c3ccc4c(c3)C(=O)N(c3ccc(NC(=O)Nc5ccc(N6C(=O)c7ccc(*)cc7C6=O)cc5)cc3)C4=O)cc2)cc1 (repeat unit) here?
**A.** 233.00 °C

**Q.** Which glass transition temperature does the source give for *CC(*)(C)C(=O)OCCC1CCN(CCCCCCOc2ccc(/N=N/c3ccc([N+](=O)[O-])cc3)cc2)CC1 (repeat unit) here?
**A.** 27.00 °C

**Q.** With */C(CC)=C(/*)c1ccccc1 (repeat unit) as the compound, how does the glass transition temperature read?
**A.** 200.00 °C

**Q.** Which glass transition temperature does the source give for *Oc1cc(OC(=O)c2ccc(C(*)=O)cc2)cc(C(=O)OCCN(CC)c2ccc(/N=N/c3ccc([N+](=O)[O-])cc3)cc2)c1 (repeat unit) here?
**A.** 130.00 °C

**Q.** Which glass transition temperature does the source give for *c1ccc(Oc2cccc(Oc3ccc(N4C(=O)c5ccc(-c6ccc7c(c6)C(=O)N(*)C7=O)cc5C4=O)cc3)c2C#N)cc1 (repeat unit) here?
**A.** 271.00 °C

**Q.** For *Oc1ccc(-c2ccc(-c3cc(-c4ccccc4)c(-c4ccc(-c5ccc(OC(=O)c6ccc(C(*)=O)cc6-c6ccccc6)cc5)cc4)c(-c4ccccc4)c3-c3ccccc3)cc2)cc1 (repeat unit), which glass transition temperature is on record?
**A.** 260.00 °C

**Q.** Which glass transition temperature does the source give for *CC(CO*)(CS(=O)(=O)C(C)C)CS(=O)(=O)C(C)C (repeat unit) here?
**A.** 91.00 °C

**Q.** Which glass transition temperature does the source give for *CCCCCCCCCCCC(c1ccc(O)cc1)C(*)c1ccc(O)cc1C (repeat unit) here?
**A.** 4.00 °C

**Q.** Which glass transition temperature does the source give for *C(=O)Nc1ccc(C2(c3ccc(NC(=O)c4ccc5c(c4)C(=O)N(c4ccc(-c6ccc(N7C(=O)c8ccc(*)cc8C7=O)c(OC)c6)cc4OC)C5=O)cc3)c3ccccc3-c3ccccc32)cc1 (repeat unit) here?
**A.** 181.00 °C

**Q.** With *C(=O)Nc1ccc(C(=O)c2ccc(NC(=O)c3ccc4c(c3)C(=O)N(c3cccc(P(=O)(c5ccccc5)c5cccc(N6C(=O)c7ccc(*)cc7C6=O)c5)c3)C4=O)cc2)cc1 (repeat unit) as the compound, how does the glass transition temperature read?
**A.** 238.00 °C

**Q.** With *C1C(=O)N(c2ccccc2C(=O)OC)C(=O)C1* (repeat unit) as the compound, how does the glass transition temperature read?
**A.** 259.00 °C

**Q.** Which glass transition temperature does the source give for *CCCCCCn1c2ccccc2c2cc(/C=C(\C#N)C(=O)OCCCCCCOC(=O)/C(C#N)=C/c3ccc4c(c3)c3ccccc3n4*)ccc21 (repeat unit) here?
**A.** 117.70 °C

**Q.** For *OP(=O)(Oc1ccccc1)Oc1ccc(*)cc1 (repeat unit), which glass transition temperature is on record?
**A.** 97.00 °C

**Q.** For *CC(*)c1cc(Br)ccc1OCCC (repeat unit), which glass transition temperature is on record?
**A.** 54.00 °C

**Q.** Which glass transition temperature does the source give for *c1cc(C(=O)Oc2cccc3cccnc23)c(*)s1 (repeat unit) here?
**A.** 154.00 °C

**Q.** Which glass transition temperature does the source give for *Oc1ccc(Oc2ccc(C(=O)c3ccc(NC(=O)c4cccc(C(=O)Nc5ccc(C(=O)c6ccc(*)cc6)cc5)c4)cc3)cc2)cc1 (repeat unit) here?
**A.** 198.00 °C

**Q.** With *c1ccc(-c2ccc3c(c2)C(CCCCCCBr)(CCCCCCBr)c2cc(*)ccc2-3)cc1 (repeat unit) as the compound, how does the glass transition temperature read?
**A.** 122.00 °C

**Q.** With *c1ccc(OCCCCCCCCCCOc2ccc(N3C(=O)c4ccc(-c5ccc6c(c5)C(=O)N(*)C6=O)cc4C3=O)cc2)cc1 (repeat unit) as the compound, how does the glass transition temperature read?
**A.** 153.00 °C

**Q.** With *C(=O)N1C(=S)N(C(=O)c2ccc3c(c2)C(=O)N(c2ccc(Oc4ccc(N5C(=O)c6ccc(*)cc6C5=O)cc4)cc2)C3=O)C(C)=C(C(=O)OCC)C1c1ccccc1 (repeat unit) as the compound, how does the glass transition temperature read?
**A.** 155.00 °C

**Q.** Which glass transition temperature does the source give for *c1ccc(Oc2cc(C(C)(C)C)ccc2Oc2ccc(-n3c(=O)c4cc5c(=O)n(*)c(=O)c5cc4c3=O)cc2)cc1 (repeat unit) here?
**A.** 321.00 °C

**Q.** Which glass transition temperature does the source give for *CCCCCCCCCCCCCCCCCCNC(=O)CCc1ccc(CCC(=O)N*)cc1 (repeat unit) here?
**A.** 65.00 °C

**Q.** For *c1ccc(-c2nc3cc(S(=O)(=O)c4ccc5nc(*)c(-c6ccccc6)nc5c4)ccc3nc2-c2ccccc2)cc1 (repeat unit), which glass transition temperature is on record?
**A.** 277.50 °C

**Q.** Which glass transition temperature does the source give for *[O][Ca][O]C(=O)c1ccccc1C(=O)OCCCCCOC(=O)Nc1cc(NC(=O)OCCCCCOC(=O)c2ccccc2C(*)=O)ccc1C (repeat unit) here?
**A.** 5.10 °C

**Q.** For *C1C2C/C(=C\C)C(C2)C1* (repeat unit), which glass transition temperature is on record?
**A.** 61.40 °C
